Structure (SMILES)	melting point
COc1cc2[nH]c(N(C)Cc3cccc(C4=NCCO4)c3)nc(=O)c2c(OC)c1OC [Example 11, 2-{[3-(4,5-Dihydro-oxazol-2-yl)-benzyl]-methyl-amino}-5,6,7-trimethoxy-1H-quinazolin-4-one]	202.3 to 203.4 °C
COc1cc2[nH]c(N(C)Cc3ccc(N4CCCC4=O)cc3)nc(=O)c2c(OC)c1OC [Example 12, 5,6,7-Trimethoxy-2-{methyl-[4-(2-oxo-pyrrolidin-1-yl)-benzyl]-amino}-1H-quinazolin-4-one]	195.9 to 197.4 °C
C=CCN1Cc2ccc(CN(C)c3nc(=O)c4c(OC)c(OC)c(OC)cc4[nH]3)cc2C1 [Example 13, 2-[(2-Allyl-2,3-dihydro-1H-isoindol-5-ylmethyl)-methyl-amino]-5,6,7-trimethoxy-1H-quinazolin-4-one]	133.7 to 136.6 °C
COc1cc2[nH]c(N(C)Cc3ccc(OCC(O)CO)cc3)nc(=O)c2c(C)c1OC (stereo not drawn) [Example 14, 2-{[4-(2,3-Dihydroxy-propoxy)-benzyl]-methyl-amino}-6,7-dimethoxy-5-methyl-1H-quinazolin-4-one]	199.7 to 201.9 °C
COc1ccc(CN(C)c2nc(=O)c3c(C)c(OC)c(OC)cc3[nH]2)cc1OCCN(C)CCO [Example 16, 2-[(3-{2-[(2-Hydroxy-ethyl)-methyl-amino]-ethoxy}-4-methoxy-benzyl)-methyl-amino]-6,7-dimethoxy-5-methyl-1H-quinazolin-4-one]	144.8 to 146.2 °C
COc1cc2[nH]c(N(C)Cc3cccc(CN(C)S(C)(=O)=O)c3)nc(=O)c2c(C)c1OC [Example 17, N-(3-{[(6,7-Dimethoxy-5-methyl-4-oxo-1,4-dihydro-quinazolin-2-yl)-methyl-amino]-methyl}-benzyl)-N-methyl-methanesulfonamide]	223.9 to 225.9 °C
COCCN1Cc2ccc(CN(C)c3nc(=O)c4c(OC)c(OC)c(OC)cc4[nH]3)cc2C1 [Example 18, 5,6,7-Trimethoxxy-2-{[2-(2-methoxy-ethyl)-2,3-dihydro-1H-isoindol-5-ylmethyl]-methyl-amino}-1H-quinazolin-4-one]	133.3 to 136.6 °C
COCCN1Cc2ccc(CN(C)c3nc(=O)c4c(C)c(OC)c(OC)cc4[nH]3)cc2C1 [Example 19, 6,7-Dimethoxy-2-{[2-(2-methoxy-ethyl)-2,3-dihydro-1H-isoindol-5-ylmethyl]-methyl-amino}-5-methyl-1H-quinazolin-4-one]	173.3 to 177.9 °C
COc1cc2[nH]c(N(C)Cc3cccc(N4CCC(OC)C4=O)c3)nc(=O)c2c(OC)c1OC (stereo not drawn) [Example 20, 5,6,7-Trimethoxy-2-{[3-(3-methoxy-2-oxo-prrolidin-1-yl)-benzyl]-methyl-amino}-1H-quinazolin-4-one]	90.2 to 94.7 °C
COc1cc2[nH]c(N(C)Cc3ccc(CN(C)S(C)(=O)=O)cc3)nc(=O)c2c(OC)c1OC [Example 21, N-Methyl-N-(4-{[methyl-(5,6,7-trimethoxy-4-oxo-1,4-dihydro-quinazolin-2-yl)-amino]-methyl}-benzyl)-methanesulfonamide]	148.8 to 151 °C
CNCCc1ccc(CN(C)c2nc(=O)c3c(C)c(OC)c(OC)cc3[nH]2)cc1 [Example 23, 6,7-Dimethoxy-5-methyl-2-{methyl-[4-(2-methylamino-ethyl)-benzyl]-amino}-1H-quinazolin-4-onbe]	154.6 to 159 °C
COc1cc2[nH]c(N(C)Cc3cccc(N4C[C@@H](O)CC4=O)c3)nc(=O)c2c(OC)c1OC [Example 24, 2-{[3-((S)-4-Hydroxy-2-oxo-pyrrolidin-1-yl)-benzyl]-methyl-amino}-5,6,7-trimethoxy-1H-quinazolin-4-one]	207.5 to 209.9 °C
CCN(C)CCOc1ccc(CN(C)c2nc(=O)c3c(C)c(OC)c(OC)cc3[nH]2)cc1OC [Example 25, 2-({4-[2-(Ethyl-methyl-amino)-ethoxy]-3-methoxy-benzyl}-methyl-amino)-6,7-dimethoxy-5-methyl-1H-quinazolin-4-one]	158.1 to 159.2 °C
COc1cc2[nH]c(N(C)Cc3cccc(C(C)N(C)S(C)(=O)=O)c3)nc(=O)c2c(C)c1OC (stereo not drawn) [Example 26, N-[1-(3-{[(6,7-Dimethoxy-5-methyl-4-oxo-1,4-dihydro-quinazolin-2-yl)-methyl-amino]-methyl}-phenyl)-ethyl]-N-methyl-methanesulfonamide]	130 to 133.8 °C
COc1cc2[nH]c(N(C)Cc3cccc(N4C[C@@H](O)CC4=O)c3)nc(=O)c2c(C)c1OC [Example 27, 2-{[3-((S)-4-Hydroxy-2-oxo-pyrrolidin-1-yl)-benzyl]-methyl-amino}-6,7-dimethoxy-5-methyl-1H-quinazolin-4-one]	230.8 to 232.5 °C
CCN(C)CCc1ccc(CN(C)c2nc(=O)c3c(C)c(OC)c(OC)cc3[nH]2)cc1 [Example 28, 2-({4-[2-(Ethyl-methyl-amino)-ethyl]-benzyl}-methyl-amino)-6,7-dimethoxy-5-methyl-1H-quinazolin-4-one]	172.4 to 173.2 °C
CNCCOc1ccc(CN(C)c2nc(=O)c3c(C)c(OC)c(OC)cc3[nH]2)cc1OC [Example 29, 6,7-Dimethoxy-2-{[3-methoxy-4-(2-methylamino-ethoxy)-benzyl]-methyl-amino}-5-methyl-1H-quinazolin-4-one]	168.9 to 169.8 °C
CCN(CCO)Cc1ccc(CN(C)c2nc(=O)c3c(C)c(OC)c(OC)cc3[nH]2)cc1 [Example 30, 2-[(4-{[Ethyl-(2-hydroxy-ethyl)-amino]-methyl}-benzyl)-methyl-amino]-6,7-dimethoxy-5-methyl-1H-quinazolin-4-one]	142 to 145 °C
COc1cc2[nH]c(N(C)Cc3ccc(OCCO)cc3)nc(=O)c2c(C)c1OC [Example 31, 2-{[4-(2-Hydroxy-ethoxy)-benzyl]-methylamino}-6,7-dimethoxy-5-methyl-1H-quinazolin-4-one]	198.5 to 199.5 °C
CCN(CCOC)Cc1ccc(CN(C)c2nc(=O)c3c(OC)c(OC)c(OC)cc3[nH]2)cc1 [Example 32, 2-[(4-{[Ethyl(2-methoxy-ethyl)-amino]-methyl}-benzyl)-methyl-amino]-5,6,7-trimethoxy-1H-quinazolin-4-one]	120 to 122.4 °C
COc1cc2[nH]c(N(C)Cc3cccc(CN(C)CCO)c3)nc(=O)c2c(C)c1OC [Example 33, 2-[(3-{[(2-Hydroxy-ethyl)-methyl-amino]-methyl}-benzyl)-methyl-amino]-6,7-dimethoxy-5-methyl-1H-quinazolin-4-one]	123.8 to 125.6 °C
COc1cc2[nH]c(N(C)Cc3cccc(CN4CCC(OC)C4)c3)nc(=O)c2c(C)c1OC (stereo not drawn) [Example 37, 6,7-Dimetrhoxy-2-{[3-(3-methoxy-pyrrolidin-1-ylmethyl)-benzyl]-methyl-amino}-5-methyl-1H-quinazolin-4-one]	151.2 to 152.9 °C
COc1cc2[nH]c(N(C)Cc3ccc4c(c3)CN(C)C4)nc(=O)c2c(C)c1OC [Example 38, 6,7-Dimethoxy-5-methyl-2-[methyl-(2-methyl-2,3-dihydro-1H-isoindol-5-ylmethyl)-amino]-1H-quinazolin-4-one]	214.9 to 224.8 °C
COc1cc2[nH]c(N(C)Cc3cccc(CN4CCC(O)CC4)c3)nc(=O)c2c(OC)c1OC [Example 39, 2-{[3-(4-Hydroxy-piperidin-1-ylmethyl)-benzyl]-methyl-amino}-5,6,7-trimethoxy-1H-quinazolin-4-one]	97.5 to 104.7 °C

From patent publication US7244738B2, “Arylamine-substituted quinazolinone compounds useful as alpha 1A/B adrenergic receptor antagonists” (Roche Palo Alto LLC, priority 2003, dated 2007)
